Assay results taken from patent US6518243B1, “Desleucyl glycopeptide antibiotics and methods of making same” (Trustees of Princeton University, priority 1999, dated 2003).

The compounds below were run on E. faecalis (CL 4877) (assay: Zone of inhibition screen, 96 well agar array format). Settings: zone of inhibition relative to 1 mg/ml p-chlorobiphenylvancomycin.
Assay type: cell-based
Design: scale not given here
Experimental: The antibacterial activity of each of the compounds against the bacterial strains E. faceium (ATCC 49624), S. epidermidis (ATCC 12228), S. aureus (ATCC 29213), E. faecalis (CL 4877) and E. faecalis (ATCC 292121) was tested. Each of the compounds was screened in a 96 will agar array format.

Row | SMILES | zone score, E. faecalis CL 4877
1 | CCSCC(=O)NC1C(=O)NC(CC(N)=O)C(=O)NC2C(=O)NC3C(=O)NC(C(=O)NC(C(=O)O)c4cc(O)cc(O)c4-c4cc3ccc4O)C(O)c3ccc(c(Cl)c3)Oc3cc2cc(c3OC2OC(CO)C(O)C(O)C2OC2CC(C)(NCc3ccc(-c4ccc(Cl)cc4)cc3)C(O)C(C)O2)Oc2ccc(cc2Cl)C1O (stereo not shown) [Compound 225] | 2
2 | CC1OC(OC2C(Oc3c4cc5cc3Oc3ccc(cc3Cl)C(O)C3NC(=O)C(NC(=O)C5NC(=O)C(CC(N)=O)NC(=O)C(NC(=O)c5ccc(N)cc5)C(O)c5ccc(c(Cl)c5)O4)c4ccc(O)c(c4)-c4c(O)cc(O)cc4C(C(=O)O)NC3=O)OC(CO)C(O)C2O)CC(C)(NCc2ccc(-c3ccc(Cl)cc3)cc2)C1O (stereo not shown) [Compound 268] | 2

Same assay, conditions: zone of inhibition relative to 1 mg/ml stock solution of p-chlorobiphenylvancomycin

Row | SMILES | zone score, E. faecalis CL 4877
3 | CC1OC(OC2C(Oc3c4cc5cc3Oc3ccc(cc3Cl)[C@@H](O)[C@@H](NC(=O)CNC(=O)CNC(=O)CNC(=O)c3ccccc3)C(=O)N[C@@H](CC(N)=O)C(=O)N[C@H]5C(=O)NC3C(=O)N[C@H](C(=O)N[C@@H](C(=O)O)c5cc(O)cc(O)c5-c5cc3ccc5O)[C@H](O)c3ccc(c(Cl)c3)O4)OC(CO)C(O)C2O)CC(C)(NCc2ccc(-c3ccc(Cl)cc3)cc2)C1O (stereo partly shown) [Compound 161] | 2
4 | CC(=O)NCSC(C)(C)C(N)C(=O)NC1C(=O)NC(CC(N)=O)C(=O)NC2C(=O)NC3C(=O)NC(C(=O)NC(C(=O)O)c4cc(O)cc(O)c4-c4cc3ccc4O)C(O)c3ccc(c(Cl)c3)Oc3cc2cc(c3OC2OC(CO)C(O)C(O)C2OC2CC(C)(NCc3ccc(-c4ccc(Cl)cc4)cc3)C(O)C(C)O2)Oc2ccc(cc2Cl)C1O (stereo not shown) [Compound 46] | 2
5 | CC(=O)NC(CCCNC(=N)N)C(=O)NC1C(=O)NC(CC(N)=O)C(=O)NC2C(=O)NC3C(=O)NC(C(=O)NC(C(=O)O)c4cc(O)cc(O)c4-c4cc3ccc4O)C(O)c3ccc(c(Cl)c3)Oc3cc2cc(c3OC2OC(CO)C(O)C(O)C2OC2CC(C)(NCc3ccc(-c4ccc(Cl)cc4)cc3)C(O)C(C)O2)Oc2ccc(cc2Cl)C1O (stereo not shown) [Compound 184] | 2
6 | CC1OC(OC2C(Oc3c4cc5cc3Oc3ccc(cc3Cl)C(O)C3NC(=O)C(NC(=O)C5NC(=O)C(CC(N)=O)NC(=O)C(NC(=O)C(Cc5c[nH]cn5)NC(N)=O)C(O)c5ccc(c(Cl)c5)O4)c4ccc(O)c(c4)-c4c(O)cc(O)cc4C(C(=O)O)NC3=O)OC(CO)C(O)C2O)CC(C)(NCc2ccc(-c3ccc(Cl)cc3)cc2)C1O (stereo not shown) [Compound 192] | 2
7 | CC(=O)NC(CCCNC(=N)N)C(=O)NC1C(=O)NC(CC(N)=O)C(=O)NC2C(=O)NC3C(=O)NC(C(=O)NC(C(=O)O)c4cc(O)cc(O)c4-c4cc3ccc4O)C(O)c3ccc(c(Cl)c3)Oc3cc2cc(c3OC2OC(CO)C(O)C(O)C2OC2CC(C)(NCc3ccc(-c4ccc(Cl)cc4)cc3)C(O)C(C)O2)Oc2ccc(cc2Cl)C1O (stereo not shown) [Compound 111] | 2
8 | CC1OC(OC2C(Oc3c4cc5cc3Oc3ccc(cc3Cl)C(O)C3NC(=O)C(NC(=O)C5NC(=O)C(CC(N)=O)NC(=O)C(NC(=O)c5cnccn5)C(O)c5ccc(c(Cl)c5)O4)c4ccc(O)c(c4)-c4c(O)cc(O)cc4C(C(=O)O)NC3=O)OC(CO)C(O)C2O)CC(C)(NCc2ccc(-c3ccc(Cl)cc3)cc2)C1O (stereo not shown) [Compound 103] | 2
9 | CC1OC(OC2C(Oc3c4cc5cc3Oc3ccc(cc3Cl)C(O)C3NC(=O)C(NC(=O)C5NC(=O)C(CC(N)=O)NC(=O)C(NC(=O)c5nccnc5N)C(O)c5ccc(c(Cl)c5)O4)c4ccc(O)c(c4)-c4c(O)cc(O)cc4C(C(=O)O)NC3=O)OC(CO)C(O)C2O)CC(C)(NCc2ccc(-c3ccc(Cl)cc3)cc2)C1O (stereo not shown) [Compound 105] | 2
10 | COCCOCCOCC(=O)NC1C(=O)NC(CC(N)=O)C(=O)NC2C(=O)NC3C(=O)NC(C(=O)NC(C(=O)O)c4cc(O)cc(O)c4-c4cc3ccc4O)C(O)c3ccc(c(Cl)c3)Oc3cc2cc(c3OC2OC(CO)C(O)C(O)C2OC2CC(C)(NCc3ccc(-c4ccc(Cl)cc4)cc3)C(O)C(C)O2)Oc2ccc(cc2Cl)C1O (stereo not shown) [Compound 101] | 2
